From patent publication US9827189B2, “Stable parenteral DNJ compositions” (AMICUS THERAPEUTICS, INC., priority 2013, dated 2017)
Counter-ions that a name gives are not always drawn.

What was measured:
[1] = test system: cynomolgus monkey whole blood; assay: Hemolytic potential in cynomolgus monkey whole blood; type: cell-based; settings: 37 ° C. 30 minutes
Description: 1-DNJ-HCl was dissolved in sodium citrate buffer. 1-DNJ-HCl concentration was 30 mg/mL (resulting free 1-DNJ concentration was 25 mg/mL); sodium citrate buffer concentration was 50 mM at pH 5.0. 1-DNJ-HCl formulation was added to whole blood samples of male human, rat, and cynomolgus monkey. […]. Buffer served as a negative control, while Triton-X 100 (Lysing agent) served as a positive control. Additionally blood sample without any additions was used as a negative control. The samples were stored at 4° C. Blood samples were incubated at 37 ° C. for 30 minutes with the 1-DNJ-HCl formulation, after which the samples were centrifuged. The amount of hemoglobin in the supernatant from each centrifuged sample was measured using a commercially available hemoglobin assay kit (BioAssay Systems, QuantiChrom™ Hemoglobin Assay Kit) and the Tecan microplate reader.

[2] = Osmolality of 1-DNJ-HCl in sodium citrate buffer by freezing point; type: physicochemical
Description: The molallity of 1-deoxynojirimycin chloride (1-DNJ-HCl) was determined by freezing point depreciation. 1-deoxynojirimycin chloride concentration ranged from 30 mg/mL to 60 mg/mL. Sodium citrate concentration ranged from 20 to 50 mM.

Osmolality ([2]; 1-DNJ-HCl 30 mg/mL, Sodium Citrate Buffer 20 mM): 311 mOsm/kg
Osmolality ([2]; 1-DNJ-HCl 30 mg/mL, Sodium Citrate Buffer 25 mM): 327 mOsm/kg
Osmolality ([2]; 1-DNJ-HCl 30 mg/mL, Sodium Citrate Buffer 30 mM): 343 mOsm/kg
Osmolality ([2]; 1-DNJ-HCl 30 mg/mL, Sodium Citrate Buffer 35 mM): 358 mOsm/kg
Osmolality ([2]; 1-DNJ-HCl 30 mg/mL, Sodium Citrate Buffer 40 mM): 374 mOsm/kg
Osmolality ([2]; 1-DNJ-HCl 30 mg/mL, Sodium Citrate Buffer 45 mM): 389 mOsm/kg
Osmolality ([2]; 1-DNJ-HCl 35 mg/mL, Sodium Citrate Buffer 20 mM): 353 mOsm/kg
Osmolality ([2]; 1-DNJ-HCl 35 mg/mL, Sodium Citrate Buffer 25 mM): 369 mOsm/kg
Osmolality ([2]; 1-DNJ-HCl 35 mg/mL, Sodium Citrate Buffer 30 mM): 384 mOsm/kg
Osmolality ([2]; 1-DNJ-HCl 35 mg/mL, Sodium Citrate Buffer 35 mM): 400 mOsm/kg
Osmolality ([2]; 1-DNJ-HCl 35 mg/mL, Sodium Citrate Buffer 40 mM): 415 mOsm/kg
Osmolality ([2]; 1-DNJ-HCl 35 mg/mL, Sodium Citrate Buffer 45 mM): 431 mOsm/kg
Osmolality ([2]; 1-DNJ-HCl 35 mg/mL, Sodium Citrate Buffer 50 mM): 447 mOsm/kg
Osmolality ([2]; 1-DNJ-HCl 40 mg/mL, Sodium Citrate Buffer 20 mM): 394 mOsm/kg
Osmolality ([2]; 1-DNJ-HCl 40 mg/mL, Sodium Citrate Buffer 25 mM): 410 mOsm/kg
Osmolality ([2]; 1-DNJ-HCl 40 mg/mL, Sodium Citrate Buffer 30 mM): 426 mOsm/kg
Osmolality ([2]; 1-DNJ-HCl 40 mg/mL, Sodium Citrate Buffer 35 mM): 441 mOsm/kg
Osmolality ([2]; 1-DNJ-HCl 40 mg/mL, Sodium Citrate Buffer 40 mM): 457 mOsm/kg
Osmolality ([2]; 1-DNJ-HCl 40 mg/mL, Sodium Citrate Buffer 45 mM): 472 mOsm/kg
Osmolality ([2]; 1-DNJ-HCl 40 mg/mL, Sodium Citrate Buffer 50 mM): 488 mOsm/kg
Osmolality ([2]; 1-DNJ-HCl 45 mg/mL, Sodium Citrate Buffer 20 mM): 436 mOsm/kg
Osmolality ([2]; 1-DNJ-HCl 45 mg/mL, Sodium Citrate Buffer 25 mM): 452 mOsm/kg
Osmolality ([2]; 1-DNJ-HCl 45 mg/mL, Sodium Citrate Buffer 30 mM): 467 mOsm/kg
Osmolality ([2]; 1-DNJ-HCl 45 mg/mL, Sodium Citrate Buffer 35 mM): 483 mOsm/kg
Osmolality ([2]; 1-DNJ-HCl 45 mg/mL, Sodium Citrate Buffer 40 mM): 498 mOsm/kg
Osmolality ([2]; 1-DNJ-HCl 45 mg/mL, Sodium Citrate Buffer 45 mM): 514 mOsm/kg
Osmolality ([2]; 1-DNJ-HCl 45 mg/mL, Sodium Citrate Buffer 50 mM): 530 mOsm/kg
Osmolality ([2]; 1-DNJ-HCl 50 mg/mL, Sodium Citrate Buffer 20 mM): 477 mOsm/kg
Osmolality ([2]; 1-DNJ-HCl 50 mg/mL, Sodium Citrate Buffer 25 mM): 493 mOsm/kg
Osmolality ([2]; 1-DNJ-HCl 50 mg/mL, Sodium Citrate Buffer 30 mM): 509 mOsm/kg
Osmolality ([2]; 1-DNJ-HCl 50 mg/mL, Sodium Citrate Buffer 35 mM): 524 mOsm/kg
Osmolality ([2]; 1-DNJ-HCl 50 mg/mL, Sodium Citrate Buffer 40 mM): 540 mOsm/kg
Osmolality ([2]; 1-DNJ-HCl 50 mg/mL, Sodium Citrate Buffer 45 mM): 555 mOsm/kg
Osmolality ([2]; 1-DNJ-HCl 50 mg/mL, Sodium Citrate Buffer 50 mM): 571 mOsm/kg
Osmolality ([2]; 1-DNJ-HCl 55 mg/mL, Sodium Citrate Buffer 20 mM): 519 mOsm/kg
Osmolality ([2]; 1-DNJ-HCl 55 mg/mL, Sodium Citrate Buffer 25 mM): 535 mOsm/kg
Osmolality ([2]; 1-DNJ-HCl 55 mg/mL, Sodium Citrate Buffer 30 mM): 550 mOsm/kg
Osmolality ([2]; 1-DNJ-HCl 55 mg/mL, Sodium Citrate Buffer 35 mM): 566 mOsm/kg
Osmolality ([2]; 1-DNJ-HCl 55 mg/mL, Sodium Citrate Buffer 40 mM): 581 mOsm/kg
Osmolality ([2]; 1-DNJ-HCl 55 mg/mL, Sodium Citrate Buffer 45 mM): 597 mOsm/kg
Osmolality ([2]; 1-DNJ-HCl 55 mg/mL, Sodium Citrate Buffer 50 mM): 613 mOsm/kg
Osmolality ([2]; 1-DNJ-HCl 60 mg/mL, Sodium Citrate Buffer 20 mM): 560 mOsm/kg
Osmolality ([2]; 1-DNJ-HCl 60 mg/mL, Sodium Citrate Buffer 25 mM): 576 mOsm/kg
Osmolality ([2]; 1-DNJ-HCl 60 mg/mL, Sodium Citrate Buffer 30 mM): 592 mOsm/kg
Osmolality ([2]; 1-DNJ-HCl 60 mg/mL, Sodium Citrate Buffer 35 mM): 607 mOsm/kg
Osmolality ([2]; 1-DNJ-HCl 60 mg/mL, Sodium Citrate Buffer 40 mM): 623 mOsm/kg
Osmolality ([2]; 1-DNJ-HCl 60 mg/mL, Sodium Citrate Buffer 45 mM): 638 mOsm/kg
Osmolality ([2]; 1-DNJ-HCl 60 mg/mL, Sodium Citrate Buffer 50 mM): 654 mOsm/kg
SMILES: OC[C@H]1NC[C@H](O)[C@@H](O)[C@@H]1O [1-DNJ-HCl, 1-deoxynojirimycin hydrochloride]
% RBC lysis ([1]; 500 μL blood mixed with 500 μL sample (30 mg/mL AT2220 or 0.1% Triton X-100)): 0.1%
Avg OD (n = 4) ([1]; 500 μL blood mixed with 500 μL sample, 30 mg/mL AT2220 dilution 1, 0.1% Triton X-100 dilution 100): 0.0649
